Reference: article PMC11898738 (mBio, 2025)

B1: recombinant BbPMI labeled with RED-NHS dye (BbPMI-NT647) (enzyme)
chain: MNNEDNIFLMKNNIKEYDWGGINFIPNLLGDKIDGKPKAEMWLGAHKTFSSKILYKNEYVLLSDFLEDHKELLGCNDEFPFLLKVLSANKPLSIQIHPSKDIALKGYESENNKGIDINDPKRTYKDKNPKIELIYALSDFYALKGFLPLDEIKKIYEILELNFDFQSHKDFVKTIFDLQMYELEKIIEKILKNLDLIDNFRGYWFNEIYNIYGIDVGLLVFLGMNILKLKPGEVVYTNSQEVHAYLKGDCIELMTNSDNVIRAGLTTKYIDKDEMLRVGQFEEGKLSFLNPDFQDNFSVFRLPNTNLKLIQKKINENICINRNSAMVLLVLNGCVSINKSLNLKKGESIFIGKKAENLFIDGDGEAFIAGFN
modifications: labeled using RED-NHS dye (NT647)

Key:
BbPMI = molecular target: T1, BbPMI (Borreliella burgdorferi, UniProt O51368); assay: coupled PGI/G6PDH assay, NADPH at […] nm; format: biochemical
T1 construct: gene manA

type IV collagen = type IV collagen (UniProt P02462 173-1669; P08572 184-1712); assay: MST; BbPMI labeled with RED-NHS dye at constant 5 nM; serial dilutions of collagen IV or controls; PBS + 0.05% Tween-20; 15 minutes at RT; standard capillaries, 10% excitation, 40% MST power; T-Jump analysis; settings: both partners purified

| Molecule | IC50 (BbPMI) | Kd (type IV collagen) |
| --- | --- | --- |
| Cc1ccc(C)c(-n2sc3cc(F)ccc3c2=O)c1 [MLS0315771, 2-(2,5-dimethylphenyl)-6-fluorobenzo[d]isothiazol-3(2H)-one] | 600 to 900 nM | – |
| O=c1c2ccc(F)cc2sn1-c1ccccc1 [NCGC00871019-01] | ~500 nM | – |
| Cc1ccc(C)c(-n2sc3ccc(F)cc3c2=O)c1 [NCGC00871020-01] | ~500 nM | – |
| COc1ccc(-n2sc3ccc(F)cc3c2=O)cc1 [NCGC00871021-01] | ~500 nM | – |
| B1 | – | 128 ± 45.1 nM |
